Assay [1] has as its system ATP-binding cassette transporter A1 (ABCA-1) protein expression. Description: ABCA-1 protein expression in human monocyte-derived macrophages (Western blotting). Type of assay: cell-based. The note with it: 0, 0.2, 0.4, 0.6, 0.8, or 1.0 nM during 7-day culture. As for the experimental part:
Monocyte-derived macrophages that had been cultured for 7 days were washed with PBS 3 times, followed by solubilization with the addition of 10% SDS (sodium dodecyl sulfate) (100 μL) to each dish. Each cell extraction solution was scooped up with a cell scraper, followed by pulverization with the use of a 1-mL TERUMO syringe and a 23-G injection needle for fragmentation (shearing). The resultant was centrifuged at 15,000 rpm for 3 minutes (Himac CF15D2 high-speed micro refrigerated centrifuge; Hitach, Ltd.). The supernatant protein concentration was assayed by the bicinchoninic acid (BCA) method (Pierce) and used as a cell extraction solution for Western blotting.
For ABCA-1 protein detection, a reaction with an anti-human ABCA-1 antibody was carried out on a transfer membrane at room temperature for 1 hour. For a primary antibody (anti-human ABCA-1 rabbit polyclonal antibody (Funakoshi Corporation)), a stock solution (5 μL) was diluted 1,000-fold with PBS-0.1% Tween 20 (5 mL), and the diluent was used. The transfer membrane was washed with PBS-0.1% Tween 20. Then, a reaction with a secondary antibody (anti-rabbit IgG antibody: anti-rabbit IgG donkey antibody conjugated with horseradish peroxidase (HRP) (GE Healthcare Bio-Science)) was carried out at room temperature for 1 hour. […]
(In general: A western blot detects proteins with antibodies after separation by electrophoresis.)

The next assay deals with CD36. As to the kind of experiment: CD36 expression by macrophages of treated apoE-deficient mice (Western blotting). The assay is classed as in vivo. The note with it: four weeks. As for the experimental part: 13-week-old male apoE-deficient mice (72 mice) were divided into the following 6 groups: (i) physiological salt saline (control); (ii) salusin-α (0.6 nmol/kg/h); (iii) salusin-β (0.6 nmol/kg/h); (iv) salusin-α (0.6 nmol/kg/h)+anti-salusin-α serum (1.4 μg/kg/h); (v) salusin-β (0.6 nmol/kg/h)+anti-salusin-β serum (1.4 μg/kg/h); and (vi) anti-salusin-β serum (1.4 μg/kg/h). The mice were subjected to continuous subcutaneous administration with the use of an osmotic mini-pump for 4 to 8 weeks. The osmotic mini-pump and the solution contained therein were changed every week.
Macrophages were collected as in the experiment in (1), and the protein expression of the gene involved in foaming of macrophages (i.e., scavenger receptors CD36 and SR-A capable of recognizing oxidized LDL, intracellular cholesterol esterification enzyme ACAT1, and ABCA1, ABCG1, and SR-BI, which are involved in cholesterol efflux) was analyzed by Western blotting. For the internal standard of the macrophage function, β-actin expression was also examined. For quantification of the band concentration, Analyzer (ATTO Corporation, Tokyo) was used.

As to “salusin-β: peptide (SEQ ID NO: 3) comprising 20 amino acid residues, generated by processing from preprosalusin (AIFIFIRWLLKLGHHGRAPP; listed as Homo sapiens) [reference compound]”, in assay [1], the ABCA-1 protein expression entry is “no significant changes”. Further, the “CD36 protein expression relative to control level” value with CD36 (0.6 nmol/kg/h, range given jointly for CD36, SR-A, ACAT1, P<0.05) fell in the range of 1.5 to 2.8 times.

Consider “salusin-α: peptide (SEQ ID NO: 1) comprising 28 amino acid residues, generated by processing from preprosalusin (SGALPPAPAAPRPALRAQRAGPAGPGAK; listed as Homo sapiens)”, for which the ABCA-1 protein expression entry in assay [1] is recorded as “no significant changes”. Moreover, the CD36 protein expression result in the assay with CD36 (salusin-α 0.6 nmol/kg/h) is recorded as “did not influence”.

For the origin of these results see patent US20110165173A1, “THERAPEUTIC AGENT AND DETECTION REAGENT FOR ARTERIOSCLEROTIC DISEASE WHICH TARGETS FOR SALUSIN” (PROTEINEXPRESS CO., LTD., priority 2007, published 2011).
